The nature of data set [1]: Animal safety monitoring of study dogs given oral benazepril. The conditions noted are these: healthy beagles; benazepril PO 0.125 mg/kg q12h, 0.25 mg/kg q12h, 0.5 mg/kg q24h (crossover). It is filed as in vivo. From the text:
All study dogs received all oral doses of benazepril as intended. Dogs were monitored for adverse effects associated with benazepril labeling as well those associated with general animal welfare e.g., vomiting, diarrhea, inappetence, weakness/hypotension, fatigue, incoordination, hypercreatininemia.
Nine purpose-bred laboratory beagles (5 castrated males and 4 spayed females), 40–42 months old, weighing 9.0–13.5 kg were randomized based on body weight and sex into three oral dosing groups of benazepril. Systemic and cardiovascular health of all dogs was confirmed prior to the study with physical examination, routine laboratory screening (complete blood count, serum biochemical analysis), blood pressure measurement, and echocardiography.
This 35-day prospective study was divided into three periods with three different benazepril dosing groups: (A) 0.125 mg/kg q12hr PO, (B) 0.25 mg/kg q12hr PO, and (C) 0.5 mg/kg q24hr PO. All dogs received all treatments using a […] crossover (ABC/BCA/CAB) design. Dogs were sampled in the same order at each time point and exact time of sampling was recorded. […]
Venous blood samples were collected from an external jugular or cephalic vein with a 1 inch, 20-gauge or 22-gauge needle attached to a 6 mL syringe. […] Samples for complete blood counts or serum chemistry panels were analyzed by the Iowa State Clinical Pathology Laboratory.

The conditions of data set [2]: dog, in vivo; cited from earlier work.
The test system of the next data set is ACE activity. The conditions noted are these: dogs, cited from earlier work; for Duration of ACE suppression: single dose 0.5 mg/kg.
Another data set has as its target T1, ACE (Canis lupus familiaris, UniProt A0A8I3S3I6).
T1 construct: from tissue; host or cells: living healthy beagle dogs; ACE in free circulation (plasma) and in tissue
T1 sequence (A0A8I3S3I6 31-1241): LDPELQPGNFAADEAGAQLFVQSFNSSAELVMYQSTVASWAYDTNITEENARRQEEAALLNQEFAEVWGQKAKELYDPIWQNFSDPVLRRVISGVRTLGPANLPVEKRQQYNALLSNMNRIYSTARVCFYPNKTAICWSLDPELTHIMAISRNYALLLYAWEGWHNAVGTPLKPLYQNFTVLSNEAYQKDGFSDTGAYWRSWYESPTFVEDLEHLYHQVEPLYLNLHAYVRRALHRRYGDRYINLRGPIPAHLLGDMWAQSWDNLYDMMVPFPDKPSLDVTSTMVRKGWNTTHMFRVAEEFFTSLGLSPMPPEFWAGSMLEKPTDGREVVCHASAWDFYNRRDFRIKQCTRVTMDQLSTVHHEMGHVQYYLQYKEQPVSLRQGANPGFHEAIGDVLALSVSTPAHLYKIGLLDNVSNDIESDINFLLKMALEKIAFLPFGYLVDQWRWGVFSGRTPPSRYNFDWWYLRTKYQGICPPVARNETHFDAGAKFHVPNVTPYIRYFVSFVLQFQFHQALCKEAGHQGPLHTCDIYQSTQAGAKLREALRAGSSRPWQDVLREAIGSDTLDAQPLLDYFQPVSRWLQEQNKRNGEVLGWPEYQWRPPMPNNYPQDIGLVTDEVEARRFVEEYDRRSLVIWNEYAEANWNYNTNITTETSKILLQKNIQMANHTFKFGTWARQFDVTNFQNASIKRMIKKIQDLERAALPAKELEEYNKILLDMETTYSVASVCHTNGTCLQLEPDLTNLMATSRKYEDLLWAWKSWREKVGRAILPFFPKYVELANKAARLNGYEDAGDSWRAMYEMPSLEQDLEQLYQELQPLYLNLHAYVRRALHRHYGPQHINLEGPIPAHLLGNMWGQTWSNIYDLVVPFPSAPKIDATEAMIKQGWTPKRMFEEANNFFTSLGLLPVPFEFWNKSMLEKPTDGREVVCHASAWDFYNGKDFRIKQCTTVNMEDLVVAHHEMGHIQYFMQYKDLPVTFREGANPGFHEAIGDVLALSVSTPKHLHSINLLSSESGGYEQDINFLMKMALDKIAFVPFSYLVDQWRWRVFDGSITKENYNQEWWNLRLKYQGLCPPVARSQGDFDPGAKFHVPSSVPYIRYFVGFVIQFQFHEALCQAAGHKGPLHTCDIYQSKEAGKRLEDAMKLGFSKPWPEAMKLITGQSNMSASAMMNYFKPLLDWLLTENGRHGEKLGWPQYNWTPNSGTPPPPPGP
Kind of data set: Michaelis–Menten model of ACE inhibition by benazeprilat within the QSP model fit. The settings on record: population estimate, beagles. It counts as in vivo, dogs (beagles). From the text:
Benazeprilat primary mechanism of action is inhibiting ACE to prevent the catalysis of AngI into AngII. To account for this mechanism, a logistic saturation model was first implemented. […] The distribution of ACE across tissue (ts) and free circulation (fr) was also considered. The nomenclature used throughout Eq. (3) is consistent with previous descriptions of the Michaelis–Menten model[26].3 E˙fr=-k-1·Efr·Sfr+k1·ESfr-k-3·Efr·Ifr+k3·EIfr+k2·ESfrE˙Sfr=k-1·Efr·Sfr-k1·ESfr-k2·ESfrE˙Ifr=k-3·Efr·Ifr-k3·EIfrE˙ts=-k-1·Ets·Sts+k1·ESts-k-3·Ets·Its+k3·EIts+k2·EStsE˙Sts=k-1·Ets·Sts-k1·ESts-k2·EStsE˙Its=k-3·Ets·Its-k3·EIts
Figure 3 Detailed model diagram. Detailed diagram of the final model structure. […] A Michaelis–Menten kinetic model of inhibitor, substrate, and enzyme interaction was used to describe the competitive inhibition of ACE by benazeprilat. k3 and k-3 were the parameters governing ACE-benazeprilat (enzyme-inhibitor) association and dissociation, while k1 and k-1 determined the rate of ACE-angiotensin (enzyme–substrate) association and dissociation. k2 controlled the production rate of angiotensin II from angiotensin I via ACE. […]
The recorded data (yij) were imported into Monolix […] (Lixoft, France) and used to estimate population parameters (μ) and variance via the stochastic approximation expectation maximization algorithm (SAEM)[46]. […]

Data set [3] in a line: NLME/QSP model fit of plasma benazeprilat pharmacokinetics after oral benazepril. It counts as in vivo, dogs (beagles). The settings on record: beagle, dog, population estimate, beagles, read-out: Clearance rate of benazeprilat (ClI), fixed effect (converted). The protocol:
The PK portion of the base model was a conventional 2-compartment mammillary model with saturable exchange between the central and peripheral compartments. Building on this initial model, several modifications of the PK structure were evaluated. First, several standard compartment variations were tested i.e., using 1-, 2-, or 3-compartment disposition functions. Overall, a 2-compartment PK model outperformed the other candidate models based on the precision of individual parameters and overall quality of fit. Second, non-specific (low affinity, high capacity) binding of benazeprilat to plasma proteins was represented by a 3rd compartment within the central compartment, i.e., representing the free circulation of benazeprilat. The volume of the non-specific binding compartment (Vns) is a representation of the relative binding capacity of benazeprilat which is distributed in plasma but is not freely circulating or interacting with ACE. […] As is typical, quantity of benazeprilat passed between compartments is called Im, n, for inhibitor, where indexes m and n represent origin and destination compartments, respectively. […] Doses are administered in benazepril hcl, but are measured as the metabolite-benazeprilat. […] Dogs were sampled in the same order at each time point and exact time of sampling was recorded. […] The benazepril dose was calculated to the nearest 1.25 mg increment. […]

The mark [4] stands for this setting: single PO dose, ref 2 (b6), ref 17 King et al.

The source of these data is paper PMC9968717, “Breakthrough: a first-in-class virtual simulator for dose optimization of ACE inhibitors in translational cardiovascular medicine” (Scientific Reports, 2023).

Where a name gives a salt, the structure may show the parent alone.

Consider `CCOC(=O)[C@H](CCc1ccccc1)N[C@H]1CCc2ccccc2N(CC(=O)O)C1=O` [benazepril, Benazepril hydrochloride], for which, in data set [1], the Adverse effects entry is given as “No adverse effects were observed”; the “Serial complete blood counts and chemistry panels: hematologic or biochemical abnormalities” value is recorded as “no evidence of hematologic or biochemical abnormalities”. The “Dose up to which safety has been established” value in data set [2] is “up to 1 mg/kg q24h”. Also, in the data set on ACE activity (setting [4]), the “Dosage from which ACE inhibition in plasma was independent of dosage” value is reported as at least 0.25 mg/kg and the “Duration of suppression of ACE activity” value was “up to 24 h”. For the same compound, the “Duration of ACE suppression” value in the data set with ACE activity was below 12 h.
Regarding `O=C(O)CN1C(=O)[C@@H](N[C@@H](CCc2ccccc2)C(=O)O)CCc2ccccc21` [benazeprilat], the “Rate of ACE-benazeprilat dissociation in vivo, scaled (k3s), fixed effect” value on ACE is 7.0 s⁻¹. For the same compound, in data set [3], the clearance was 455 mL/min.
For the compound `CCOC(=O)[C@H](CCc1ccccc1)N[C@@H](C)C(=O)N1CCC[C@H]1C(=O)O` [enalapril], the “Duration of ACE suppression” value with ACE activity was below 12 h.
